In the NIST ThermoML archive (doi:10.1016/j.fluid.2019.06.022):
Where “and” joins values, the source holds several entries; their conditions need not be identical. Equal values may be shown once.

Assay: xn = mol fraction of the nth substance listed
Details: Liquid; for mass density: Bellows volumetry; for viscosity: Falling or rolling sphere viscometry

C=C [ethene] + Cc1ccccc1
Details | mass density, x1 = 0.1131 [kg/m3] | mass density, x1 = 0.3241 | viscosity, x1 = 0.1131 | viscosity, x1 = 0.3241
295.4 K, 2700 kPa | 815.8 | – | 0.474 mPa·s | –
295.4 K, 2800 kPa | 815.8 | – | 0.474 mPa·s | –
295.4 K, 11400 kPa | 823.1 | – | 0.508 mPa·s | –
295.4 K, 11500 kPa | 823.1 | – | 0.509 mPa·s | –
295.4 K, 20400 kPa | 829.9 | – | 0.551 mPa·s | –
295.4 K, 20500 kPa | 829.9 | – | 0.548 mPa·s | –
295.4 K, 36200 kPa | 840.8 | – | 0.614 mPa·s and 0.615 mPa·s | –
298 K, 3400 kPa | – | 754.7 kg/m3 | – | 0.309 mPa·s
298 K, 3700 kPa | – | 754.7 kg/m3 | – | 0.312 mPa·s
298 K, 10000 kPa | – | 767.2 kg/m3 | – | 0.328 mPa·s and 0.332 mPa·s
298 K, 22000 kPa | – | 778.9 kg/m3 | – | 0.36 mPa·s and 0.364 mPa·s
298 K, 22300 kPa | – | 778.9 kg/m3 | – | 0.362 mPa·s
298 K, 22400 kPa | – | 778.9 kg/m3 | – | 0.366 mPa·s
298 K, 35100 kPa | – | 789.8 kg/m3 | – | 0.402 mPa·s and 0.398 mPa·s
298 K, 48000 kPa | – | 799.7 kg/m3 | – | 0.434 mPa·s and 0.439 mPa·s
298 K, 68400 kPa | – | 813.3 kg/m3 | – | 0.496 mPa·s
298 K, 68500 kPa | – | 813.3 kg/m3 | – | 0.5 mPa·s
322.1 K, 4200 kPa | 792.1 | – | 0.36 mPa·s and 0.361 mPa·s | –
322.1 K, 10200 kPa | 798.1 | – | 0.376 mPa·s and 0.377 mPa·s | –
322.1 K, 21200 kPa | 808 | – | 0.415 mPa·s | –
322.1 K, 34400 kPa | 819.1 | – | 0.442 mPa·s | –
322.1 K, 34500 kPa | 819.1 | – | 0.452 mPa·s | –
322.1 K, 48100 kPa | 828.1 | – | 0.495 mPa·s | –
322.1 K, 48200 kPa | 828.5 | – | 0.498 mPa·s and 0.497 mPa·s | –
322.1 K, 65900 kPa | 840 | – | 0.556 mPa·s and 0.55 mPa·s | –
322.2 K, 7200 kPa | – | 739.3 kg/m3 | – | 0.25 mPa·s and 0.253 mPa·s
322.2 K, 14700 kPa | – | 748.2 kg/m3 | – | 0.268 mPa·s and 0.27 mPa·s
322.2 K, 21700 kPa | – | 756.1 kg/m3 | – | 0.288 mPa·s
322.2 K, 21800 kPa | – | 756.1 kg/m3 | – | 0.283 mPa·s
322.2 K, 34300 kPa | – | 768.4 kg/m3 | – | 0.313 mPa·s
322.2 K, 34500 kPa | – | 768.4 kg/m3 | – | 0.317 mPa·s
322.2 K, 48300 kPa | – | 780.5 kg/m3 | – | 0.344 mPa·s and 0.348 mPa·s
322.2 K, 68800 kPa | – | 795.9 kg/m3 and 795.8 kg/m3 | – | 0.391 mPa·s and 0.397 mPa·s
368.1 K, 6800 kPa | – | 692.1 kg/m3 | – | 0.171 mPa·s and 0.169 mPa·s
368.1 K, 13800 kPa | – | 704 kg/m3 | – | 0.182 mPa·s
368.1 K, 13900 kPa | – | 704 kg/m3 | – | 0.185 mPa·s
368.1 K, 26500 kPa | – | 721.7 kg/m3 and 720.9 kg/m3 | – | 0.205 mPa·s and 0.208 mPa·s
368.1 K, 26600 kPa | – | 720.8 kg/m3 and 721.6 kg/m3 | – | 0.207 mPa·s and 0.208 mPa·s
368.1 K, 41800 kPa | – | 736.7 kg/m3 | – | 0.234 mPa·s
368.1 K, 42100 kPa | – | 736.7 kg/m3 | – | 0.235 mPa·s
368.1 K, 54100 kPa | – | 749.3 kg/m3 | – | 0.254 mPa·s and 0.255 mPa·s
368.1 K, 54300 kPa | – | 749.3 kg/m3 | – | 0.253 mPa·s and 0.256 mPa·s
368.1 K, 68200 kPa | – | 761.9 kg/m3 | – | 0.278 mPa·s and 0.279 mPa·s
369.3 K, 4200 kPa | 748.1 | – | 0.235 mPa·s | –
369.3 K, 4300 kPa | 748.1 | – | 0.236 mPa·s | –
369.3 K, 10200 kPa | 755.4 | – | 0.251 mPa·s | –
369.3 K, 10300 kPa | 755.4 | – | 0.25 mPa·s | –
369.3 K, 20700 kPa | 767.5 | – | 0.273 mPa·s | –
369.3 K, 20800 kPa | 767.5 | – | 0.273 mPa·s | –
369.3 K, 34800 kPa | 781.7 | – | 0.305 mPa·s and 0.304 mPa·s | –
369.3 K, 48700 kPa | 794.3 | – | 0.335 mPa·s | –
369.3 K, 48800 kPa | 794.3 | – | 0.335 mPa·s | –
369.3 K, 68400 kPa | 809.5 | – | 0.382 mPa·s | –
369.3 K, 68500 kPa | 809.5 | – | 0.379 mPa·s | –
435.9 K, 15500 kPa | – | 638 kg/m3 | – | 0.126 mPa·s
435.9 K, 15900 kPa | – | 637.9 kg/m3 | – | 0.126 mPa·s
435.9 K, 27600 kPa | – | 662 kg/m3 | – | 0.146 mPa·s
435.9 K, 27700 kPa | – | 662 kg/m3 | – | 0.144 mPa·s
435.9 K, 41800 kPa | – | 685.4 kg/m3 | – | 0.165 mPa·s
435.9 K, 42000 kPa | – | 685.3 kg/m3 and 685.5 kg/m3 | – | 0.168 mPa·s and 0.164 mPa·s
435.9 K, 42200 kPa | – | 685.4 kg/m3 | – | 0.166 mPa·s
435.9 K, 56000 kPa | – | 703.4 kg/m3 | – | 0.192 mPa·s
435.9 K, 56200 kPa | – | 703.4 kg/m3 | – | 0.188 mPa·s
435.9 K, 68400 kPa | – | 716.8 kg/m3 | – | 0.202 mPa·s
435.9 K, 68500 kPa | – | 716.8 kg/m3 | – | 0.199 mPa·s
437 K, 3900 kPa | 678.2 | – | 0.155 mPa·s | –
437 K, 4200 kPa | 678.2 | – | 0.153 mPa·s | –
437 K, 13700 kPa | 699 | – | 0.173 mPa·s | –
437 K, 14100 kPa | 699.1 | – | 0.172 mPa·s | –
437 K, 27600 kPa | 721 | – | 0.196 mPa·s | –
437 K, 27800 kPa | 721 | – | 0.197 mPa·s | –
437 K, 41400 kPa | 738.3 | – | 0.22 mPa·s | –
437 K, 41500 kPa | 738.3 | – | 0.22 mPa·s | –
437 K, 42400 kPa | 740 | – | 0.222 mPa·s | –
437 K, 42700 kPa | 740 | – | 0.224 mPa·s | –
437 K, 54200 kPa | 750.9 | – | 0.242 mPa·s | –
437 K, 54300 kPa | 750.9 | – | 0.243 mPa·s | –
437 K, 67900 kPa | 763.9 | – | 0.264 mPa·s | –
522 K, 23100 kPa | – | 555.7 kg/m3 | – | 0.097 mPa·s
522 K, 23200 kPa | – | 555.5 kg/m3 | – | 0.095 mPa·s
522 K, 29400 kPa | – | 574.4 kg/m3 and 574.7 kg/m3 and 574.6 kg/m3 | – | 0.102 mPa·s and 0.104 mPa·s
522 K, 29500 kPa | – | 574.4 kg/m3 | – | 0.103 mPa·s
522 K, 38300 kPa | – | 597 kg/m3 [middle of 4 runs] | – | 0.114 mPa·s [middle of 4 runs]
522 K, 50700 kPa | – | 621.2 kg/m3 and 620.9 kg/m3 | – | 0.125 mPa·s and 0.126 mPa·s
522 K, 50800 kPa | – | 621.2 kg/m3 | – | 0.125 mPa·s
522 K, 50900 kPa | – | 621.2 kg/m3 | – | 0.123 mPa·s
522 K, 68400 kPa | – | 645.9 kg/m3 | – | 0.144 mPa·s
522 K, 68700 kPa | – | 646 kg/m3 | – | 0.142 mPa·s
522.7 K, 9400 kPa | 581.8 | – | 0.101 mPa·s | –
522.7 K, 9800 kPa | 581.8 | – | 0.103 mPa·s | –
522.7 K, 31600 kPa | 643.4 | – | 0.137 mPa·s | –
522.7 K, 32000 kPa | 643.4 | – | 0.131 mPa·s | –
522.7 K, 32200 kPa | 643.5 | – | 0.132 mPa·s | –
522.7 K, 41200 kPa | 659.4 | – | 0.15 mPa·s | –
522.7 K, 41700 kPa | 659.4 | – | 0.145 mPa·s | –
522.7 K, 56200 kPa | 679.5 | – | 0.167 mPa·s | –
522.7 K, 56300 kPa | 679.4 | – | 0.162 mPa·s | –
522.7 K, 67600 kPa | 693.8 | – | 0.179 mPa·s | –
522.7 K, 68100 kPa | 693.8 | – | 0.177 mPa·s | –
